Assay results reported in patent US20230248627A1, “COMPOSITION FOR HAIR FOLLICLE MODULATION, METHODS AND USES THEREOF” (priority 2020, published 2023).
Structures can show the parent of a compound that is named as a salt.

Experiments:
human scalp [1] = assay: Pilot clinical study: hair curvature index after topical scalp application; format: in vivo; conditions: for visible effect on hair shape: after 5 weeks of treatment; for Effectiveness (% of volunteers) / Hair shape change (% of control), max. / Hair shape change (% of control), mean: 5 weeks, 3 times per week; for Hair shape change (% of control), max. / Hair shape change (% of control), mean: curvature index
Excerpt: This example discloses the treatment of human scalp with a formulation containing a modulation bioactive agent for straightening the hair.
The bioactive agent used in this example was Midodrine hydrochloride as straightening agent in a formulation containing water, a thickener agent with emulsifying properties - Lecigel™, a preservative agent – Euxyl® PE 9010, denaturing alcohol and Transcutol® CG.
The volunteers for the application test of the formulation with the modulation bioactive agent Midodrine hydrochloride had curly hair.
Each volunteer received the formulation without the agent Midodrine hydrochloride and the formulation with the agent Midodrine hydrochloride.
(§1) On each volunteer, the hair was shaved in two different posterior scalp locations, of approximately 1 cm^2 each, and the formulations were applied for 5 weeks, three times a week.
(§2) The formulations with and without Midodrine were applied directly on scalp. Ten microliters per 1 cm^2 of the control formulation without Midodrine hydrochloride were applied to one of the two shaved scalp areas while ten microliters per 1 cm^2 of the formulation with Midodrine hydrochloride were applied to the other shaved scalp area.
After the 15th application of formulations with and without the modulation agent, a final picture was taken showing both sites of application, the growth rate of the hairs was measured, and some hairs were plucked for further tests.
(§3) The curvature index was determined after the clinical cosmetic study conclusion, using hairs collected from the scalp areas treated with and without the modulation bioactive agent in a formulation. The control was the hair collected from scalp area treated with the formulation without the modulation bioactive ingredient.
The effect on curvature index was calculated according to the following formula: […]
Each hair was individually measured over a white paper (hair in a relaxed form) and a force was applied in order to keep the hair straight (under stress) and, in this way, measure the length of hair in stressed form.
This example discloses the treatment of human scalp with a formulation containing a modulation bioactive agent for curling the hair.
The modulation bioactive agent used in this example was Topiramate as curling agent in a formulation containing water, a thickener agent with emulsifying properties - Lecigel™, a preservative agent - Euxyl® PE 9010, denaturing alcohol and Transcutol® CG.
The volunteers for the application test of the formulation with the modulation agent Topiramate had straight hair.
Each volunteer received the formulation without the agent Topiramate and the formulation with the agent Topiramate.
as §2, with “Topiramate” for “Midodrine”, “Topiramate” for “Midodrine hydrochloride”
(§4) After the 15th application of formulations with and without the modulation bioactive agent, a final picture was taken, the growth rate of the hairs was measured, and some hairs were plucked for further tests.
as §3, with “collected from the scalp area” for “collected from scalp area”

[2] = system: human melanocytes (SK-MEL-23 cell line); assay: Intracellular melanin quantification in melanocytes treated in vitro; format: cell-based; conditions: 10 µM dipyridamole, 1% (v/v) DMSO, 3 days, normalized by protein levels
Experimental: This example discloses an “in vitro” treatment of human melanocytes (SK-MEL-23 cell line) with a solution containing a modulation bioactive agent for darkening the skin.
In an embodiment, the bioactive agent used in this example was Dipyridamole as darkening agent in a solution containing water and DMSO.
Cells were seeded on 24-well plates at density of 9.0x10^4 cells/well and treated next day with 10 µM of dipyridamole and 1% (v/v) DMSO. In the control, cells were seeded on 24-well plates at density of 9.0x10^4 cells/well and treated next day with 1% (v/v) DMSO.
The intracellular melanin quantification was performed after 3 days. The method for quantifying melanin in hair was as described by Fernandes B. et al., 2016 [51]. The melanin contents were normalized by protein levels in each sample (DC Protein assay). Melanin change in cells treated with Dipyridamole was calculated using the following mathematical formula: […]

human scalp [3] = assay: Pilot clinical study: hair melanin quantification after topical scalp application; format: in vivo; conditions: for visible effect on hair colour: after 5 weeks of treatment; for Effectiveness (% of volunteers) / Hair Melanin change (% of control), max.: 5 weeks, 3 times per week
Experimental: All the results present on the following described examples were performed in a pilot clinical study with intervention of cosmetic products (RNEC number: 92938), not contested by the Portuguese Legal Competent Authorities.
This example discloses the treatment of human scalp with a formulation containing a modulation bioactive agent for lightening the hair.
The modulation bioactive agent used in this example was Rivastigmine hydrogen tartrate as lightening agent in a formulation containing water, a thickener agent with emulsifying properties - Lecigel™, a preservative agent - Euxyl® PE 9010, denaturing alcohol and Transcutol® CG.
The volunteers for the application test of the formulation with the modulation agent Rivastigmine hydrogen tartrate had black to medium brown hair.
Each volunteer received the formulation without the agent Rivastigmine hydrogen tartrate and the formulation with the agent Rivastigmine hydrogen tartrate.
as §1
as §2, with “Rivastigmine” for “Midodrine”, “Rivastigmine hydrogen tartrate” for “Midodrine hydrochloride”
After the 15th application of formulations with and without the modulation agent, a final picture was taken, the growth rate of the hairs was measured, and some hairs were plucked for further tests.
The hair melanin quantification process was performed after the clinical cosmetic study conclusion, using hairs collected from the scalp areas treated with and without Rivastigmine hydrogen tartrate in a formulation. The control means the hair collected from the scalp area treated with the formulation without Rivastigmine hydrogen tartrate.
In an embodiment, the method for quantifying melanin in hair was as described by Fernandes B. et al., 2016 [51]. Hair samples were digested in NaOH and the solutions obtained normalized to 1 mg/mL of hair. Complete oxidation of hair lysates was performed with hydrogen peroxide and melanin content in hair samples calculated by fluoresce spectroscopy using a standard curve generated by the fluorescence of oxidized melanin standards. Melanin change in hair treated with a formulation with Rivastigmine was calculated using the following mathematical formula: […]
This example discloses the treatment of human scalp with a formulation containing a modulation bioactive agent for darkening the hair.
In an embodiment, the bioactive agent used in this example was Dipyridamole as darkening agent in a formulation containing water, a thickener agent with emulsifying properties - Lecigel™, a preservative agent - Euxyl® PE 9010, denaturing alcohol and Transcutol® CG.
The volunteers for the application test of the formulation with the modulation bioactive agent Dipyridamole had blond hair of different shades.
Each volunteer received the formulation without the agent Dipyridamole and the formulation with the agent Dipyridamole.
as §2, with “In an embodiment, the” for “The”, “Dipyridamole” for “Midodrine”, “Dipyridamole” for “Midodrine hydrochloride”
as §4
The hair melanin quantification process was performed after the clinical cosmetic study conclusion, using hairs collected from the scalp areas treated with and without Dipyridamole in a formulation. […]

[4] = Curling, 1.75% w/w formulation, straight-haired volunteers
[5] = Straightening, 0.25% w/w formulation, curly-haired volunteers

CC1(C)O[C@@H]2[C@@H](CO[C@@]3(COS(N)(=O)=O)OC(C)(C)O[C@@H]23)O1 [Topiramate]
visible effect on hair shape (human scalp [1]; 1.75% w/w formulation on scalp, straight hair): induced a curling effect | Effectiveness (% of volunteers) (human scalp [1]; Curling, 1.75% w/w formulation on scalp, straight-haired volunteers): 83.3% | Hair shape change (% of control), max. (human scalp [1]; [4]): -11.0% | Hair shape change (% of control), mean (human scalp [1]; [4]): -10.0%

COc1ccc(OC)c(C(O)CNC(=O)CN)c1 (stereo not drawn) [Midodrine HCl, Midodrine hydrochloride]
visible effect on hair shape (human scalp [1]; 0.25% w/w formulation on scalp, very curly hair): induced a straightening effect | Effectiveness (% of volunteers) (human scalp [1]; Straightening, 0.25% w/w formulation on scalp, curly-haired volunteers): 75.0% | Hair shape change (% of control), max. (human scalp [1]; [5]): +120.0% | Hair shape change (% of control), mean (human scalp [1]; [5]): +76.0%

OCCN(CCO)c1nc(N2CCCCC2)c2nc(N(CCO)CCO)nc(N3CCCCC3)c2n1 [Dipyridamole]
increase in melanin production relative to the control experiment [2]: 3.5 fold | visible effect on hair colour (human scalp [3]; 0.01% w/w formulation on scalp): induced a darkening effect | Effectiveness (% of volunteers) (human scalp [3]; Darkening, 0.01% w/w formulation on scalp, blond hair): 67.0 % of volunteers | Hair Melanin change (% of control), max. (human scalp [3]; Darkening, 0.01% w/w formulation, blond hair): +57.9%

CCN(C)C(=O)Oc1cccc([C@H](C)N(C)C)c1 [Rivastigmine, Rivastigmine hydrogen tartrate]
visible effect on hair colour (human scalp [3]; 0.2% w/w formulation on scalp): induced a lightening effect | Effectiveness (% of volunteers) (human scalp [3]; Lightening, 0.2% w/w formulation on scalp, black to medium brown hair): 50.0 % of volunteers | Hair Melanin change (% of control), max. (human scalp [3]; Lightening, 0.2% w/w formulation, black to medium brown hair): -26.3%
